Experimental data as given in US9193669B2, “Compounds for treating ophthalmic diseases and disorders” (Acucela Inc., priority 2008, dated 2015).

What was measured:
isomerase = biological target: T1, isomerase (Mus musculus, UniProt Q91ZQ5); assay: In vivo murine isomerase assay; set-up: species or system mice; conditions: for inhibition in vivo at 1 mg/kg: mouse, po, 4 h, read-out: % Inibition 1 mg/kg, 4 h
T1 construct: The recovery of 11-cis-retinal after bleaching can be used to estimate the activity of isomerase in vivo; from tissue; host or cells: eyes of living mice (CD-1; Balb/c also named)
T1 sequence (Q91ZQ5 1-533): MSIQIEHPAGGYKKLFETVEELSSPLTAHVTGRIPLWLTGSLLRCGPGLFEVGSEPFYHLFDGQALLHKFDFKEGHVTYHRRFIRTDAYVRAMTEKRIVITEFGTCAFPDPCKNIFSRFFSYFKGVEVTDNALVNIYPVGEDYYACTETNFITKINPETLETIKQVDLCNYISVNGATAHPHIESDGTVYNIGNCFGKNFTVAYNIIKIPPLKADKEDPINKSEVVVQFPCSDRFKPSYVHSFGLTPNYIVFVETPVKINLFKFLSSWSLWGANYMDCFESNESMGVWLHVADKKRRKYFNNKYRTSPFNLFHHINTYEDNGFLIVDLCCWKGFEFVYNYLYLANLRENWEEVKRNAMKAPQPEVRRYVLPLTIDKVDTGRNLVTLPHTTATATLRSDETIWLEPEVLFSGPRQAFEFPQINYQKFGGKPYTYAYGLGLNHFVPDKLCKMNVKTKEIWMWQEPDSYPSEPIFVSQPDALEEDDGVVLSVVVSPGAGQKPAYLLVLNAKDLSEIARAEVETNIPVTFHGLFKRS
Experimental: The capability of compounds described herein to inhibit isomerase was determined by an in vivo murine isomerase assay. Brief exposure of the eye to intense light (“photobleaching” of the visual pigment or simply “bleaching”) is known to photo-isomerize almost all 11-cis-retinal in the retina. The recovery of 11-cis-retinal after bleaching can be used to estimate the activity of isomerase in vivo. Delayed recovery, as represented by lower 11-cis-retinal oxime levels, indicates inhibition of isomerization reaction. Procedures were performed essentially as described by Golczak et al., Proc. Natl. Acad. Sci. […] Mice were gavaged with the compounds described in the present disclosure. After about 2-24 hours in the dark, the mice were exposed to photobleaching of about 5,000 lux of white light for 10 minutes. The mice were allowed to recover for about 2 hours in the dark. The animals were then sacrificed by carbon dioxide inhalation. Retinoids were extracted from the eye and the regeneration of 11-cis-retinal was assessed at various time intervals. […] After the mice were sacrificed, the eyes were immediately removed and placed in liquid nitrogen for storage. The eyes were placed in about 500 μL of bis-tris propane buffer (10 mM, pH˜7.3) and about 20 μl of 0.8M hydroxylamine (pH˜7.3). The eyes were cut up into small pieces with small iris scissors and then thoroughly homogenized at 30000 rpm with a mechanical homogenizer (Polytron PT 1300 D) in the tube until no visible tissue remains. About 500 μL of methanol and about 500 μL of heptane was added to each tube. The tubes were attached to a vortexer so that the contents are mixed thoroughly for about 15 minutes in room temperature. […] The samples were analyzed on an Agilent 1100 HPLC system with normal phase column: SILICA (Beckman Coutlier, dp 5 μm, […]). […] Loading volume for each sample was about 100 μl; detection wavelength is 360 nm. The area under the curve for 11-cis-retinal oxime was calculated by Agilent Chemstation software and recorded manually. Data processing was performed using Prizm software. Positive control mice (no compound administered) were sacrificed fully dark-adapted and the eye retinoids analyzed. Light (bleached) control mice (no compound administered) were sacrificed and retinoids isolated and analyzed immediately after light treatment. A time course study was also performed to determine the isomerase inhibitory activity of compounds of the present disclosure. Female or male mice (such as Balb/c mice) (at least 4/group) received 0 to about 5 mg of compounds (in water) per kg bodyweight orally, by gavage. The animals were then “photo-bleached” (about 5000 Lux white light for about 10 minutes) at about 2, 4, 8, 16 and 24 hours after dosing, and returned to darkness to allow recovery of the 11-cis-retinal content of the eyes. Mice were sacrificed about 2 hours after bleaching, eyes were enucleated, and retinoid content was analyzed by HPLC. A dose response in vivo isomerase inhibition study is performed with compounds of the present disclosure. Male or female mice (such as Balb/c mice)(at least about 8/group) are dosed orally with about 0.01 to 25 mg/kg of the compounds of HCl salts of the compounds in sterile water as solution, and photobleached about 4 hours after dosing. Recovery and retinoid analysis is performed as described above. Dark control mice are vehicle-only treated, sacrificed fully dark adapted without light treatment, and analyzed. […]

[1] = biological target: T2, recombinant human RPE65 and LRAT (Homo sapiens, UniProt Q16518); assay: Human in vitro isomerase inhibition reaction; type: biochemical; conditions: human in vitro isomerase assay, FIG. 1 and FIG. 2
T2 construct: made in house; host or cells: HEK293 cell clone (homogenate) for RPE65 and LRAT; E. coli TOP10 for CRALBP
T2 sequence (Q16518 2-533 limits assumed): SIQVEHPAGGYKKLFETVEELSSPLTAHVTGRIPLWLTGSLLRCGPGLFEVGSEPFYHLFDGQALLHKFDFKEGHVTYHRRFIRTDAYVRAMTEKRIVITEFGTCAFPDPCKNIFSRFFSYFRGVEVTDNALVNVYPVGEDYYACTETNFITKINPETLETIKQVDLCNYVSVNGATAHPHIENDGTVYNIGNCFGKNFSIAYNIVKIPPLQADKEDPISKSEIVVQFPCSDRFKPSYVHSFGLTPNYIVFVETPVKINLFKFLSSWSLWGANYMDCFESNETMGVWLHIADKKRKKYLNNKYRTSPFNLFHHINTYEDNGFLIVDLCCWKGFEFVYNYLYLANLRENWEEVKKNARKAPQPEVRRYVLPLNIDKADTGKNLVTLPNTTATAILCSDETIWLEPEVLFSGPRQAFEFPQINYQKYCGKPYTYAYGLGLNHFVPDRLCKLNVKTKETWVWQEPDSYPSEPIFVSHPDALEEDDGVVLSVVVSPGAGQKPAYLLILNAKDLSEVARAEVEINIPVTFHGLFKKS
Experimental: A homogenate of HEK293 cell clone expressing recombinant human RPE65 and LRAT were the source of the visual enzymes, and exogenous all-trans-retinol (about 20 μM) was used as the substrate. […] The 200 μL Bis-Tris Phosphate buffer (10 mM, pH 7.2) based reaction mixture also contains 0.5% BSA, and 1 mM NaPPi. In this assay, the reaction was carried out at 37° C. in duplicates for one hour and was terminated by addition of 300 μL methanol. The amount of reaction product, 11-cis-retinol, was measured by HPLC analysis following Heptane extraction of the reaction mixture.

Row | % Inibition 1 mg/kg, 24 h (isomerase; 1 mg/kg oral, 24 h after dosing, inhibition of 11-cis-retinal (oxime) recovery after photobleach) | inhibition in vivo at 1 mg/kg (isomerase) | inhibition of 11-cis-retinol production [1] | SMILES
1 | 48.70 ± 2.71% | -11.9 ± 18.2% | dose-dependent inhibition | NCCCc1cccc(NS(=O)(=O)C2CCCCC2)c1 [Example 6, N-(3-(3-aminopropyl)phenyl)cyclohexanesulfonamide]
2 |  | -11.7 ± 4.36% | dose-dependent inhibition | NCCC(O)c1cccc(NS(=O)(=O)C2CCCCC2)c1 (centres unmarked) [Example 5, N-(3-(3-amino-1-hydroxypropyl)phenyl)cyclohexanesulfonamide]
